# Structures can show the parent of a compound that is named as a salt.
# Tested on: NCIH929.1 cells
# Test: Cell viability assay for Table 2 (CellTiter-Glo 2.0, ATP quantification, 96 hr)
# Assay type: cell-based
# Settings: 96 h, NCIH929.1 cell viability, 96 hr, top concentration 1 μM, 14 points half log titration; read-out: IC50
# Text: Cell Viability Assay for Table 2
# CellTiter-Glo® 2.0 Assay was purchased from Promega (Madison, Wis., USA). NCIH929.1 cell line was purchased from ATCC (Manassas, Va., USA). Cell culture flasks and 384-well microplates were acquired from VWR (Radnor, Pa., USA).
row,Structure (SMILES),IC50
1,"O=C1CCC(N2C(=O)c3cccc4c(Cc5ccccc5)ccc2c34)C(=O)N1 (stereo not shown) [Compound 277, 3-(6-benzyl-2-oxo-benzo[cd]indol-1-yl)piperidine-2,6-dione]",< 1 nM
2,"O=C1CCC(N2C(=O)c3cccc4c(Cc5ccc(CN6CCc7ccccc7C6)cc5)ccc2c34)C(=O)N1 (stereo not shown) [Compound 155, 3-[6-[[4-(3,4-dihydro-1H-isoquinolin-2-ylmethyl)phenyl]methyl]-2-oxo-benzo[cd]indol-1-yl]piperidine-2,6-dione]",< 1 nM
3,"CC1(n2cc(Cc3ccc4c5c(cccc35)C(=O)N4C3CCC(=O)NC3=O)cn2)CCNCC1 (stereo not shown) [Compound 69, 3-(6-((1-(4-methylpiperidin-4-yl)-1H-pyrazol-4-yl)methyl)-2-oxobenzo[cd]indol-1(2H)-yl)piperidine-2,6-dione hydrochloride]",< 100 nM
4,"O=C1CCC(N2C(=O)c3cccc4c(Cc5cnn(C6CCN(CC7(C(F)(F)F)CC7)CC6)c5)ccc2c34)C(=O)N1 (stereo not shown) [Compound 62, 3-(2-oxo-6-((1-(1-((1-(trifluoromethyl)cyclopropyl)methyl)piperidin-4-yl)-1H-pyrazol-4-yl)methyl)benzo[cd]indol-1(2H)-yl)piperidine-2,6-dione]",< 1 nM
5,"CC1(n2cc(Cc3ccc4c5c(cccc35)C(=O)N4C3CCC(=O)NC3=O)cn2)CCN(C(=O)C23COC(C2)C3)CC1 (single isomer, unassigned) [Compound 238, 3-[6-[[1-[4-methyl-1-(2-oxabicyclo[2.1.1]hexane-4-carbonyl)-4-piperidyl]pyrazol-4-yl]methyl]-2-oxo-benzo[cd]indol-1-yl]piperidine-2,6-dione]",< 1 nM
6,"CN1CC2CC(C(=O)N3CCC(n4cc(Cc5ccc6c7c(cccc57)C(=O)N6C5CCC(=O)NC5=O)cn4)CC3)(C2)C1 (stereo not shown) [Compound 265, 3-(6-((1-(1-(3-methyl-3-azabicyclo[3.1.1]heptane-1-carbonyl)piperidin-4-yl)-1H-pyrazol-4-yl)methyl)-2-oxobenzo[cd]indol-1(2H)-yl)piperidine-2,6-dione]",< 1 nM
7,"CC1(CN2CCC(C)(n3cc(Cc4ccc5c6c(cccc46)C(=O)N5C4CCC(=O)NC4=O)cn3)CC2)CC1 (stereo not shown) [Compound 100, 3-(6-((1-(4-methyl-1-((1-methylcyclopropyl)methyl)piperidin-4-yl)-1H-pyrazol-4-yl)methyl)-2-oxobenzo[cd]indol-1(2H)-yl)piperidine-2,6-dione]",< 1 nM
8,"CC1(C(=O)N2CCC(c3cn(Cc4ccc5c6c(cccc46)C(=O)N5C4CCC(=O)NC4=O)nn3)CC2)CCC1 (stereo not shown) [Compound 125, 3-[6-[[4-[1-(1-methylcyclobutanecarbonyl)-4-piperidyl]triazol-1-yl]methyl]-2-oxo-benzo[cd]indol-1-yl]piperidine-2,6-dione]",< 1 nM
9,"NCC1(n2cc(Cc3ccc4c5c(cccc35)C(=O)N4C3CCC(=O)NC3=O)cn2)CCN(C(=O)C2(C(F)(F)F)CC2)CC1 (stereo not shown) [Compound 194, 3-[6-[[1-[4-(aminomethyl)-1-[1-(trifluoromethyl)cyclopropanecarbonyl]-4-piperidyl]pyrazol-4-yl]methyl]-2-oxo-benzo[cd]indol-1-yl]piperidine-2,6-dione]",< 100 nM
10,"CC(C)(C#N)C(=O)N1CCC(C)(n2cc(Cc3ccc4c5c(cccc35)C(=O)N4C3CCC(=O)NC3=O)cn2)CC1 (stereo not shown) [Compound 80, 3-(4-(4-((1-(2,6-dioxopiperidin-3-yl)-2-oxo-1,2-dihydrobenzo[cd]indol-6-yl)methyl)-1H-pyrazol-1-yl)-4-methylpiperidin-1-yl)-2,2-dimethyl-3-oxopropanenitrile]",< 1 nM
11,"O=C1CCC(N2C(=O)c3cccc4c(Cc5ccc(CN6CCC7(CCCO7)CC6)nc5)ccc2c34)C(=O)N1 (racemic) [Compound 268, 3-[6-[[6-(1-oxa-8-azaspiro[4.5]decan-8-ylmethyl)-3-pyridyl]methyl]-2-oxo-benzo[cd]indol-1-yl]piperidine-2,6-dione]",< 1 nM
12,"O=C1CCC(N2C(=O)c3cccc4c(Cc5ccc(CN6CCC7(CCCO7)CC6)cc5)ncc2c34)C(=O)N1 (stereo not shown) [Compound 267, 3-[24-[[4-(1-oxa-8-azaspiro[4.5]decan-8-ylmethyl)phenyl]methyl]-28-oxo-31,34-diazatricyclododeca-,2(22),7(23),21(25),24(31)-pentaen-34-yl]piperidine-2,6-dione]",< 1 nM
13,"O=C1CCC(N2C(=O)c3cccc4c(Cc5ccc(CN6CCN(C(=O)C7CC7)CC6)cc5)ccc2c34)C(=O)N1 (stereo not shown) [Compound 112, 3-(6-(4-((4-(cyclopropanecarbonyl)piperazin-1-yl)methyl)benzyl)-2-oxobenzo[cd]indol-1(2H)-yl)piperidine-2,6-dione]",< 1 nM
14,"CC1(C(=O)N2CCC(N3CCN(Cc4ccc5c6c(cccc46)C(=O)N5C4CCC(=O)NC4=O)C3=O)CC2)CCC1 (stereo not shown) [Compound 181, 3-[6-[[3-[1-(1-methylcyclobutanecarbonyl)-4-piperidyl]-2-oxo-imidazolidin-1-yl]methyl]-2-oxo-benzo[cd]indol-1-yl]piperidine-2,6-dione]",< 1 nM
15,"CN(c1ccc(Cc2ccc3c4c(cccc24)C(=O)N3C2CCC(=O)NC2=O)cc1)C1CCN(c2ccc(C#N)cc2F)CC1 (stereo not shown) [Compound 165, 4-[4-[4-[[1-(2,6-dioxo-3-piperidyl)-2-oxo-benzo[cd]indol-6-yl]methyl]-N-methyl-anilino]-1-piperidyl]-3-fluoro-benzonitrile]",< 1 nM
16,"CC1(n2cc(Cc3ccc4c5c(cccc35)C(=O)N4C3CCC(=O)NC3=O)cn2)CCN(C(=O)C2(C(F)(F)F)CCC2)CC1 (stereo not shown) [Compound 78, 3-(6-((1-(4-methyl-1-(1-(trifluoromethyl)cyclobutane-1-carbonyl)piperidin-4-yl)-1H-pyrazol-4-yl)methyl)-2-oxobenzo[cd]indol-1(2H)-yl)piperidine-2,6-dione]",< 1 nM
17,"O=C1CCC(N2C(=O)c3cccc4c(Cc5cnn(C6CCN(C(=O)C7(CO)CCC7)CC6)c5)ccc2c34)C(=O)N1 (stereo not shown) [Compound 205, 3-[6-[[1-[1-[1-(hydroxymethyl)cyclobutanecarbonyl]-4-piperidyl]pyrazol-4-yl]methyl]-2-oxo-benzo[cd]indol-1-yl]piperidine-2,6-dione]",< 1 nM
18,"O=C1CCC(N2C(=O)c3cccc4c(Cc5cnn(C6CCCCC6)c5)ccc2c34)C(=O)N1 (stereo not shown) [Compound 162, 3-[6-[(1-cyclohexylpyrazol-4-yl)methyl]-2-oxo-benzo[cd]indol-1-yl]piperidine-2,6-dione]",< 1 nM
19,"O=C1CCC(N2C(=O)c3cccc4c(Cc5ccc(CN6CCOCC6)c(F)c5)ccc2c34)C(=O)N1 (stereo not shown) [Compound 278, 3-[6-{[3-fluoro-4-(morpholinomethyl)phenyl]methyl}-2-oxo-benzo[cd]indol-1-yl]piperidine-2,6-dione]",< 1 nM
20,"O=C1CCC(N2C(=O)c3cccc4c(Cc5ccc(CN6C7COCC6C7)cc5)ccc2c34)C(=O)N1 (stereo not shown) [Compound 146, 3-[6-[[4-(3-oxa-6-azabicyclo[3.1.1]heptan-6-ylmethyl)phenyl]methyl]-2-oxo-benzo[cd]indol-1-yl]piperidine-2,6-dione]",< 1 nM
21,"O=C1CCC(N2C(=O)c3cccc4c(Cc5ccc(CN6CCN(c7ccccc7F)CC6)cc5)ccc2c34)C(=O)N1 (stereo not shown) [Compound 188, 3-[6-[[4-[[4-(2-fluorophenyl)piperazin-1-yl]methyl]phenyl]methyl]-2-oxo-benzo[cd]indol-1-yl]piperidine-2,6-dione]",< 1 nM
22,"CC1(C(=O)N2CCC(n3cc(C(N)c4ccc5c6c(cccc46)C(=O)N5C4CCC(=O)NC4=O)cn3)CC2)CCC1 (stereo not shown) [Compound 153, 3-(6-(amino(1-(1-(1-methylcyclobutane-1-carbonyl)piperidin-4-yl)-1H-pyrazol-4-yl)methyl)-2-oxobenzo[cd]indol-1(2H)-yl)piperidine-2,6-dione]",< 1 nM
23,"CC(C)(Cl)C(=O)N1CCC(C)(n2cc(Cc3ccc4c5c(cccc35)C(=O)N4C3CCC(=O)NC3=O)cn2)CC1 (stereo not shown) [Compound 97, 3-(6-((1-(1-(2-chloro-2-methylpropanoyl)-4-methylpiperidin-4-yl)-1H-pyrazol-4-yl)methyl)-2-oxobenzo[cd]indol-1(2H)-yl)piperidine-2,6-dione]",< 1 nM
24,"O=C1CCC(N2C(=O)c3cccc4c(Cc5ccc(CN6CCOCC6)cc5)cnc2c34)C(=O)N1 (racemic) [Compound 221, 3-[20-[[4-(morpholinomethyl)phenyl]methyl]-25-oxo-27,30-diazatricyclododeca-(2),1(18),7(20),19(21),22(27)-pentaen-30-yl]piperidine-2,6-dione]",< 1 nM
25,"CC1(C(=O)N2CCC(n3cc(Cc4cnc5c6c(cccc46)C(=O)N5C4CCC(=O)NC4=O)cn3)CC2)CCC1 (stereo not shown) [Compound 289, 3-[20-[[1-[1-(1-methylcyclobutanecarbonyl)-4-piperidyl]pyrazol-4-yl]methyl]-26-oxo-30,35-diazatricyclododeca-1,3(18),5(20),17(21),22(30)-pentaen-35-yl]piperidine-2,6-dione]",< 100 nM
26,"N#Cc1ccc(N2CCN(Cc3ccnn3Cc3ccc4c5c(cccc35)C(=O)N4C3CCC(=O)NC3=O)CC2)c(F)c1 (stereo not shown) [Compound 209, 4-(4-((1-((1-(2,6-dioxopiperidin-3-yl)-2-oxo-1,2-dihydrobenzo[cd]indol-6-yl)methyl)-1-H-pyrazol-5-yl)methyl)piperazin-1-yl)-3-fluorobenzonitrile]",< 100 nM
27,"C#CCOc1ccc2c3c(cccc13)C(=O)N2C1CCC(=O)NC1=O (stereo not shown) [Compound 137, 3-(2-oxo-6-prop-2-ynoxy-benzo[cd]indol-1-yl)piperidine-2,6-dione]",< 100 nM

# Same assay, conditions: NCIH929.1 cell viability, 96 hr, top concentration 1 μM, 14 points half log titration; read-out: IC50
row,Structure (SMILES),IC50
1,"O=C1CCC(N2C(=O)c3cccc4c(Cc5cnn(C6CCN(C7CCC78CCC8)CC6)c5)ccc2c34)C(=O)N1 (single isomer, unassigned) [Compound 245, 3-{2-Oxo-6-[1-(1-spiro[3.3]hept-1-yl-piperidin-4-yl)-1H-pyrazol-4-ylmethyl]-2H-benzo[cd]indol-1-yl}-piperidine-2,6-dione]",< 1 nM
